Patent US8030547B2, “Gene coding for acetolactate synthase” (priority 2002, dated 2011)
pIC50: −log10 of the molar value. Where two headings read alike, the source gives them in different places.

Assays:
Format in all cases: biochemical, rice (Oryza sativa var. Kinmaze)
[1] = biological target: T1, GST fusion P171H/R172S mutant ALS protein (Oryza sativa subsp. japonica, UniProt Q6K2E8, P171H/R172S); assay: Herbicide sensitivity of ALS protein expressed in E. coli (crude enzyme solution), P171H/R172S; conditions: for RS ratio: P171H/R172S mutant vs wild type; for Predicted RS ratio: product of RS ratios of the 1-point mutants
T1 construct: made in house; host or cells: E. coli JM109, pGEX-2T(ALS P171H, R172S mutant); crude supernatant
Experimental: (§1) ALS activity resulting from the mutant ALS protein contained in the eluted fractions apportioned into each test tube for apportioning was measured as follows. A reaction solution to be used in a measurement reaction was prepared by mixing an eluted fraction to be measured with a solution comprising 20 mM sodium pyruvate, 0.5 mM TPP, 0.5 mM MgCl2, 10 μM FAD and 20 mM potassium phosphate buffer (pH 7.5). One ml of this reaction solution was used. After the eluted fraction to be measured was added, the measurement reaction was performed at 30° C. for 40 to 60 minutes. Then, the reaction was stopped by addition of 0.1 ml of 6N sulfuric acid (or 0.25 N sodium hydroxide).
(§2) After the reaction was stopped, the reaction solution was incubated at 60° C. for 10 minutes, thereby converting acetolactate contained in the reaction solution to acetoin.
(§3) Then, to quantify acetoin contained in the reaction solution, 1 ml of 0.5% (w/v) creatine and 1 ml of 5% (w/v) α-naphthol dissolved in 2.5 N sodium hydroxide was added to the reaction solution, followed by incubation at 37° C. for 10 minutes. Acetoin was then quantified by color comparison of the absorbance (at 525 nm) of the reaction solution, thereby evaluating ALS activity. In addition, since the reaction solution contained a small amount of sodium pyruvate, reaction time 0 was used as control.
(§4) E. coli transformed with pGEX-2T(ALS-wild) constructed in Example 3(5), E. coli transformed with pGEX-2T(ALS-W548L mutant) constructed in Example 5, E. coli transformed with pGEX-2T(ALS-S627I mutant) constructed in Example 5, E. coli transformed with pGEX-2T(ALS P171H mutant) constructed in Example 6, E. coli transformed with pGEX-2T(ALS R172S mutant) constructed in Example 6, E. coli transformed with pGEX-2T(ALS P171H, R172S mutant) constructed in Example 7, E. coli transformed with pGEX-2T(ALS-P171H, W548L mutant) constructed in Example 8, E. coli transformed with pGEX-2T(ALS-P171H, S627I mutant) constructed in Example 8, and E. coli transformed with pGEX-2T(ALS-P171H, W548L, S627I mutant) constructed in Example 9 were respectively shake-cultured (pre-culture) at 27° C. in 2 ml of LB liquid medium containing ampicillin. These types of E. coli were respectively cultured in 250 ml of LB liquid medium containing ampicillin using 1 ml of the pre-culture solution. After culturing overnight, 1 mM IPTG was added to the media, and then culturing was performed for a further 3 to 4 hours, so that the expression of GST fusion protein was induced. In addition, the cells were stored at −80° C. after washing.
(§5) Preparation and purification of ALS from E. coli were performed by the following method. First, the pellet of the transformant E. coli stored at −80° C. was suspended in ALS extraction buffer (potassium phosphate buffer (pH 7.5) containing 30% glycerol and 0.5 mM MgCl2). Specifically, 2.5 ml of the buffer was added to the pellet obtained from 50 ml of the culture solution. The suspension was subjected to ultrasonication (Heat Systems-Ultrasonics, Sonicator W-225R, micro chip, output control 8, interval of approximately 1 second, twice (40 seconds each)), and subjected to centrifugation at 15000×g, 4° C. for 20 minutes, thereby obtaining the supernatant as a crude enzyme solution.
(§6) Herbicide sensitivity of the wild type ALS protein and that of mutant ALS protein were examined using the 9 types of crude enzyme solutions obtained in Example 10. Herbicide sensitivity test was performed according to procedures almost the same as those in Example 2. However, in this example, reaction temperature was 37° C., reaction time was 30 minutes, and 10 mM valine was added to the reaction solution to inhibit ALS activity derived from E. coli. Further, three types of herbicides, bispyribac-sodium, pyrithiobac-sodium, and pyriminobac, were used as PC herbicides; chlorsulfuron was used as a sulfonylurea herbicide; and imazaquin was used as an imidazolinon herbicide. […]

[2] = biological target: T2, GST fusion W548L mutant ALS protein (Oryza sativa subsp. japonica, UniProt Q6K2E8, W548L); assay: Herbicide sensitivity of ALS protein expressed in E. coli (crude enzyme solution), W548L; conditions: for RS ratio: W548L mutant vs wild type
T2 construct: an expression vector having the full-length wild type ALS cDNA incorporated into the Eco RI site of pGEX-2T; made in house; host or cells: E. coli JM109, pGEX 2T(ALS-W548L mutant); crude supernatant
Experimental: as §1, §2, §3, §4, §5, §6

[3] = biological target: T3, GST fusion P171H mutant ALS protein (Oryza sativa subsp. japonica, UniProt Q6K2E8, P171H); assay: Herbicide sensitivity of ALS protein expressed in E. coli (crude enzyme solution), P171H; conditions: for RS ratio: P171H mutant vs wild type
T3 construct: an expression vector having the full-length wild type ALS cDNA incorporated into the Eco RI site of pGEX-2T; made in house; host or cells: E. coli JM109, pGEX-2T(ALS P171H mutant); crude supernatant
Experimental: as §1, §2, §3, §4, §5, §6

[4] = biological target: T4, GST fusion R172S mutant ALS protein (Oryza sativa subsp. japonica, UniProt Q6K2E8, R172S); assay: Herbicide sensitivity of ALS protein expressed in E. coli (crude enzyme solution), R172S; conditions: for RS ratio: R172S mutant vs wild type
T4 construct: an expression vector having the full-length wild type ALS cDNA incorporated into the Eco RI site of pGEX-2T; made in house; host or cells: E. coli JM109, pGEX-2T(ALS R172S mutant); crude supernatant
Experimental: as §1, §2, §3, §4, §5, §6

[5] = biological target: T5, GST fusion P171H/W548L mutant ALS protein (Oryza sativa subsp. japonica, UniProt Q6K2E8, P171H/W548L); assay: Herbicide sensitivity of ALS protein expressed in E. coli (crude enzyme solution), P171H/W548L; conditions: for RS ratio: P171H/W548L mutant vs wild type; for Predicted RS ratio: product of RS ratios of the 1-point mutants
T5 construct: made in house; host or cells: E. coli, pGEX-2T(ALS-P171H, W548L mutant); crude supernatant
Experimental: as §1, §2, §3, §4, §5, §6

[6] = biological target: T6, GST fusion S627I mutant ALS protein (Oryza sativa subsp. japonica, UniProt Q6K2E8, S627I); assay: Herbicide sensitivity of ALS protein expressed in E. coli (crude enzyme solution), S627I; conditions: for RS ratio: S627I mutant vs wild type
T6 construct: an expression vector having the full-length wild type ALS cDNA incorporated into the Eco RI site of pGEX-2T; made in house; host or cells: E. coli JM109, pGEX 2T(ALS-S627I mutant); crude supernatant
Experimental: as §1, §2, §3, §4, §5, §6

[7] = biological target: T7, GST fusion wild type ALS protein (Oryza sativa subsp. japonica, UniProt Q6K2E8); assay: Herbicide sensitivity of ALS protein expressed in E. coli (crude enzyme solution), wild type; conditions: 37° C., 30 minutes, 10 mM valine, read-out: I50
T7 construct: an expression vector having the full-length wild type ALS cDNA incorporated into the Eco RI site of pGEX-2T; made in house; host or cells: E. coli JM109, pGEX-2T(ALS-wild); crude supernatant
Experimental: as §1, §2
as §3, with “control. […]” for “control.”

[8] = biological target: T8, GST fusion P171H/S627I mutant ALS protein (Oryza sativa subsp. japonica, UniProt Q6K2E8, P171H/S627I); assay: Herbicide sensitivity of ALS protein expressed in E. coli (crude enzyme solution), P171H/S627I; conditions: for RS ratio: P171H/S627I mutant vs wild type; for Predicted RS ratio: product of RS ratios of the 1-point mutants
T8 construct: made in house; host or cells: E. coli, pGEX-2T(ALS-P171H, S627I mutant); crude supernatant
Experimental: as §1, §2, §3, §4, §5, §6

T1 sequence (Q6K2E8 44-644 P171H/R172S): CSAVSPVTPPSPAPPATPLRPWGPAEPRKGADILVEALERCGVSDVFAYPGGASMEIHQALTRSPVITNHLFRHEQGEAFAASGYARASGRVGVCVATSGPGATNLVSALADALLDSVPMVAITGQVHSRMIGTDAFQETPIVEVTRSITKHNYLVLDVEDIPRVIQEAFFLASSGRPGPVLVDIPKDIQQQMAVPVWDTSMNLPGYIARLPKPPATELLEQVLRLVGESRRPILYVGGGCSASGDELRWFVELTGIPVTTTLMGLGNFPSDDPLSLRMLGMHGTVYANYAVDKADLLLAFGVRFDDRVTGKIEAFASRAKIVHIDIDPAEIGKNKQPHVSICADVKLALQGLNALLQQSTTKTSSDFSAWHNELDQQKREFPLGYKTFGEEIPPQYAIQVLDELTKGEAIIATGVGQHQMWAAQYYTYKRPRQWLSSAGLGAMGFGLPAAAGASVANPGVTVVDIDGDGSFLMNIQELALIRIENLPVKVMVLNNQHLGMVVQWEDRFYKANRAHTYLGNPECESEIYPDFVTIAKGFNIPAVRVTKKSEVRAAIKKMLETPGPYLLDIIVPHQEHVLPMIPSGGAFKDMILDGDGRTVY
T5 sequence (Q6K2E8 44-644 P171H/W548L): as the sequence (Q6K2E8 44-644 P171H/R172S) above, with S129R, W505L counted along it
T3 sequence (Q6K2E8 44-644 P171H): as the sequence (Q6K2E8 44-644 P171H/R172S) above, with S129R counted along it
T8 sequence (Q6K2E8 44-644 P171H/S627I): as the sequence (Q6K2E8 44-644 P171H/R172S) above, with S129R, S584I counted along it
T2 sequence (Q6K2E8 44-644 W548L): as the sequence (Q6K2E8 44-644 P171H/R172S) above, with H128P, S129R, W505L counted along it
T4 sequence (Q6K2E8 44-644 R172S): as the sequence (Q6K2E8 44-644 P171H/R172S) above, with H128P counted along it
T6 sequence (Q6K2E8 44-644 S627I): as the sequence (Q6K2E8 44-644 P171H/R172S) above, with H128P, S129R, S584I counted along it
T7 sequence (Q6K2E8 44-644): as the sequence (Q6K2E8 44-644 P171H/R172S) above, with H128P, S129R counted along it

Compound: CON=C(C)c1cccc(Oc2nc(OC)cc(OC)n2)c1C(=O)O [pyriminobac]
- RS ratio/ predicted RS ratio ([1]; P171H/R172S mutant): 0.85
- RS ratio [1]: 5.1
- pIC50 ([1]; P171H/R172S mutant, 37° C., 30 minutes, 10 mM valine, read-out: I50): 7.39
- Predicted RS ratio ([1]; P171H/R172S mutant): 6
- RS ratio [2]: 4500
- pIC50 ([2]; W548L mutant, 37° C., 30 minutes, 10 mM valine, read-out: I50): 4.44
- RS ratio [3]: 5
- pIC50 ([3]; P171H mutant, 37° C., 30 minutes, 10 mM valine, read-out: I50): 7.40
- RS ratio [4]: 1.2
- pIC50 ([4]; R172S mutant, 37° C., 30 minutes, 10 mM valine, read-out: I50): 8.04
- RS ratio/ predicted RS ratio ([5]; P171H/W548L mutant): >0.57
- RS ratio [5]: >13000
- inhibition % at the highest concentration among the concentrations tested ([5]; P171H/W548L mutant, in 100 μM): 11%
- Predicted RS ratio ([5]; P171H/W548L mutant): 23000
- RS ratio [6]: 2800
- pIC50 ([6]; S627I mutant, 37° C., 30 minutes, 10 mM valine, read-out: I50): 4.66
- pIC50 [7]: 8.10
- RS ratio/ predicted RS ratio ([8]; P171H/S627I mutant): >0.93
- RS ratio [8]: >13000
- inhibition % at the highest concentration among the concentrations tested ([8]; P171H/S627I mutant, in 100 μM): 21%
- Predicted RS ratio ([8]; P171H/S627I mutant): 14000

Compound: COc1cc(OC)nc(Sc2cccc(Cl)c2C(=O)O)n1 [pyrithiobac-sodium]
- pIC50 [1]: 6.85
- RS ratio/ predicted RS ratio ([1]; P171H/R172S mutant): 3.8
- RS ratio [1]: 13
- Predicted RS ratio ([1]; P171H/R172S mutant): 3.4
- RS ratio [2]: >9100
- inhibition at 100 µM ([2]; read-out: inhibition % at the highest concentration among the concentrations tested, W548L mutant, in 100 μM): 41%
- pIC50 [3]: 7.43
- RS ratio [3]: 3.4
- pIC50 [4]: 7.96
- RS ratio [4]: 1
- RS ratio [5]: >9100
- Predicted RS ratio ([5]; P171H/W548L mutant): >31000
- inhibition at 100 µM ([5]; read-out: inhibition % at the highest concentration among the concentrations tested, P171H/W548L mutant, in 100 μM): 20%
- pIC50 [6]: 5.66
- RS ratio [6]: 200
- pIC50 [8]: 5.03
- RS ratio/ predicted RS ratio ([8]; P171H/S627I mutant): 1.3
- RS ratio [8]: 850
- Predicted RS ratio ([8]; P171H/S627I mutant): 680
